In publication PMC10938783, “A novel pan-PI3K inhibitor KTC1101 synergizes with anti-PD-1 therapy by targeting tumor suppression and immune activation” (Molecular Cancer, 2024):

Test system: B16 cells gene expression
Assay: RNA-Seq (DEGs, GSEA, heatmaps) of B16 cells
Conditions: B16 cells, KTC 0.2μM

Compound: COc1cc(N)cc2c1nc(C(F)F)n2-c1nc(N2CCCOCC2)nc(N2CCOCC2)n1 [KTC1101, 2-(difluoromethyl)-4-methoxy-1-(4-morpholino-6-(1,4-oxazepan-4-yl)-1,3,5-triazin-2-yl)-1H-benzo[d]imidazol-6-amine]
- NES: Platinum drug resistance (GSEA KEGG mmu01524): -1.706
- enrichmentScore: Platinum drug resistance (GSEA KEGG mmu01524): -0.4321
- NES: Ribosome (GSEA KEGG mmu03010): 2.0791
- enrichmentScore: Ribosome (GSEA KEGG mmu03010): 0.5599
- NES: Nucleocytoplasmic transport (GSEA KEGG mmu03013): -1.168
- enrichmentScore: Nucleocytoplasmic transport (GSEA KEGG mmu03013): -0.2706
- NES: DNA replication (GSEA KEGG mmu03030): -1.22
- enrichmentScore: DNA replication (GSEA KEGG mmu03030): -0.374
- NES: Proteasome (GSEA KEGG mmu03050): -1.869
- enrichmentScore: Proteasome (GSEA KEGG mmu03050): -0.5072
- NES: PPAR signaling pathway (GSEA KEGG mmu03320): -1.414
- enrichmentScore: PPAR signaling pathway (GSEA KEGG mmu03320): -0.3831
- NES: Homologous recombination (GSEA KEGG mmu03440): -1.259
- enrichmentScore: Homologous recombination (GSEA KEGG mmu03440): -0.3597
- NES: MAPK signaling pathway (GSEA KEGG mmu04010): 1.18
- enrichmentScore: MAPK signaling pathway (GSEA KEGG mmu04010): 0.3038
- NES: ErbB signaling pathway (GSEA KEGG mmu04012): 1.235
- enrichmentScore: ErbB signaling pathway (GSEA KEGG mmu04012): 0.3633
- NES: Rap1 signaling pathway (GSEA KEGG mmu04015): 1.294
- enrichmentScore: Rap1 signaling pathway (GSEA KEGG mmu04015): 0.3507
- NES: Calcium signaling pathway (GSEA KEGG mmu04020): 1.795
- enrichmentScore: Calcium signaling pathway (GSEA KEGG mmu04020): 0.4973
- NES: cGMP-PKG signaling pathway (GSEA KEGG mmu04022): 1.703
- enrichmentScore: cGMP-PKG signaling pathway (GSEA KEGG mmu04022): 0.4759
- NES: cAMP signaling pathway (GSEA KEGG mmu04024): 1.563
- enrichmentScore: cAMP signaling pathway (GSEA KEGG mmu04024): 0.4327
- NES: Cytokine-cytokine receptor interaction (GSEA KEGG mmu04060): 1.941
- enrichmentScore: Cytokine-cytokine receptor interaction (GSEA KEGG mmu04060): 0.59
- NES: Viral protein interaction with cytokine and cytokine receptor (GSEA KEGG mmu04061): 2.1
- enrichmentScore: Viral protein interaction with cytokine and cytokine receptor (GSEA KEGG mmu04061): 0.7876
- NES: Chemokine signaling pathway (GSEA KEGG mmu04062): 1.837
- enrichmentScore: Chemokine signaling pathway (GSEA KEGG mmu04062): 0.514
- NES: NF-kappa B signaling pathway (GSEA KEGG mmu04064): 1.257
- enrichmentScore: NF-kappa B signaling pathway (GSEA KEGG mmu04064): 0.3844
- NES: HIF-1 signaling pathway (GSEA KEGG mmu04066): -1.602
- enrichmentScore: HIF-1 signaling pathway (GSEA KEGG mmu04066): -0.3782
- NES: Phospholipase D signaling pathway (GSEA KEGG mmu04072): 1.435
- enrichmentScore: Phospholipase D signaling pathway (GSEA KEGG mmu04072): 0.4011
- NES: Neuroactive ligand-receptor interaction (GSEA KEGG mmu04080): 1.734
- enrichmentScore: Neuroactive ligand-receptor interaction (GSEA KEGG mmu04080): 0.5578
- NES: Cell cycle (GSEA KEGG mmu04110): -1.229
- enrichmentScore: Cell cycle (GSEA KEGG mmu04110): -0.265
- NES: Oocyte meiosis (GSEA KEGG mmu04114): -1.291
- enrichmentScore: Oocyte meiosis (GSEA KEGG mmu04114): -0.2991
- NES: Protein processing in endoplasmic reticulum (GSEA KEGG mmu04141): -1.222
- enrichmentScore: Protein processing in endoplasmic reticulum (GSEA KEGG mmu04141): -0.2637
- NES: Lysosome (GSEA KEGG mmu04142): -1.281
- enrichmentScore: Lysosome (GSEA KEGG mmu04142): -0.2917
- NES: Phagosome (GSEA KEGG mmu04145): -1.483
- enrichmentScore: Phagosome (GSEA KEGG mmu04145): -0.3503
- NES: PI3K-Akt signaling pathway (GSEA KEGG mmu04151): 1.456
- enrichmentScore: PI3K-Akt signaling pathway (GSEA KEGG mmu04151): 0.3693
- NES: Cellular senescence (GSEA KEGG mmu04218): 1.209
- enrichmentScore: Cellular senescence (GSEA KEGG mmu04218): 0.3231
- NES: Cardiac muscle contraction (GSEA KEGG mmu04260): 1.313
- enrichmentScore: Cardiac muscle contraction (GSEA KEGG mmu04260): 0.4187
- NES: Adrenergic signaling in cardiomyocytes (GSEA KEGG mmu04261): 1.264
- enrichmentScore: Adrenergic signaling in cardiomyocytes (GSEA KEGG mmu04261): 0.3566
- NES: Wnt signaling pathway (GSEA KEGG mmu04310): 1.195
- enrichmentScore: Wnt signaling pathway (GSEA KEGG mmu04310): 0.334
- NES: Notch signaling pathway (GSEA KEGG mmu04330): 1.378
- enrichmentScore: Notch signaling pathway (GSEA KEGG mmu04330): 0.4468
- NES: Hedgehog signaling pathway (GSEA KEGG mmu04340): -1.456
- enrichmentScore: Hedgehog signaling pathway (GSEA KEGG mmu04340): -0.4001
- NES: TGF-beta signaling pathway (GSEA KEGG mmu04350): 1.497
- enrichmentScore: TGF-beta signaling pathway (GSEA KEGG mmu04350): 0.4579
- NES: VEGF signaling pathway (GSEA KEGG mmu04370): -1.413
- enrichmentScore: VEGF signaling pathway (GSEA KEGG mmu04370): -0.3829
- NES: Apelin signaling pathway (GSEA KEGG mmu04371): 1.504
- enrichmentScore: Apelin signaling pathway (GSEA KEGG mmu04371): 0.4209
- NES: Osteoclast differentiation (GSEA KEGG mmu04380): 1.356
- enrichmentScore: Osteoclast differentiation (GSEA KEGG mmu04380): 0.3943
- NES: Hippo signaling pathway (GSEA KEGG mmu04390): 1.527
- enrichmentScore: Hippo signaling pathway (GSEA KEGG mmu04390): 0.4244
- NES: Focal adhesion (GSEA KEGG mmu04510): 1.45
- enrichmentScore: Focal adhesion (GSEA KEGG mmu04510): 0.3877
- NES: ECM-receptor interaction (GSEA KEGG mmu04512): 1.51
- enrichmentScore: ECM-receptor interaction (GSEA KEGG mmu04512): 0.4857
- NES: Gap junction (GSEA KEGG mmu04540): 1.307
- enrichmentScore: Gap junction (GSEA KEGG mmu04540): 0.3903
- NES: Complement and coagulation cascades (GSEA KEGG mmu04610): 1.788
- enrichmentScore: Complement and coagulation cascades (GSEA KEGG mmu04610): 0.6389
- NES: Neutrophil extracellular trap formation (GSEA KEGG mmu04613): 1.259
- enrichmentScore: Neutrophil extracellular trap formation (GSEA KEGG mmu04613): 0.3655
- NES: Toll-like receptor signaling pathway (GSEA KEGG mmu04620): 1.2254
- enrichmentScore: Toll-like receptor signaling pathway (GSEA KEGG mmu04620): 0.3682
- NES: NOD-like receptor signaling pathway (GSEA KEGG mmu04621): 1.434
- enrichmentScore: NOD-like receptor signaling pathway (GSEA KEGG mmu04621): 0.4008
- NES: C-type lectin receptor signaling pathway (GSEA KEGG mmu04625): 1.433
- enrichmentScore: C-type lectin receptor signaling pathway (GSEA KEGG mmu04625): 0.4281
- NES: JAK-STAT signaling pathway (GSEA KEGG mmu04630): 1.466
- enrichmentScore: JAK-STAT signaling pathway (GSEA KEGG mmu04630): 0.4286
- NES: Hematopoietic cell lineage (GSEA KEGG mmu04640): 1.336
- enrichmentScore: Hematopoietic cell lineage (GSEA KEGG mmu04640): 0.501
- NES: IL-17 signaling pathway (GSEA KEGG mmu04657): 1.494
- enrichmentScore: IL-17 signaling pathway (GSEA KEGG mmu04657): 0.4654
- NES: Th17 cell differentiation (GSEA KEGG mmu04659): 1.198
- enrichmentScore: Th17 cell differentiation (GSEA KEGG mmu04659): 0.3665
- NES: Fc epsilon RI signaling pathway (GSEA KEGG mmu04664): -1.329
- enrichmentScore: Fc epsilon RI signaling pathway (GSEA KEGG mmu04664): -0.3636
- NES: TNF signaling pathway (GSEA KEGG mmu04668): 1.66
- enrichmentScore: TNF signaling pathway (GSEA KEGG mmu04668): 0.4756
- NES: Circadian rhythm (GSEA KEGG mmu04710): -1.714
- enrichmentScore: Circadian rhythm (GSEA KEGG mmu04710): -0.5347
- NES: Circadian entrainment (GSEA KEGG mmu04713): 1.598
- enrichmentScore: Circadian entrainment (GSEA KEGG mmu04713): 0.4957
- NES: Synaptic vesicle cycle (GSEA KEGG mmu04721): -1.378
- enrichmentScore: Synaptic vesicle cycle (GSEA KEGG mmu04721): -0.3771
- NES: Neurotrophin signaling pathway (GSEA KEGG mmu04722): 1.347
- enrichmentScore: Neurotrophin signaling pathway (GSEA KEGG mmu04722): 0.3745
- NES: Glutamatergic synapse (GSEA KEGG mmu04724): 1.249
- enrichmentScore: Glutamatergic synapse (GSEA KEGG mmu04724): 0.3819
- NES: Cholinergic synapse (GSEA KEGG mmu04725): 1.403
- enrichmentScore: Cholinergic synapse (GSEA KEGG mmu04725): 0.4174
- NES: Olfactory transduction (GSEA KEGG mmu04740): 1.83
- enrichmentScore: Olfactory transduction (GSEA KEGG mmu04740): 0.66
- NES: Taste transduction (GSEA KEGG mmu04742): 1.885
- enrichmentScore: Taste transduction (GSEA KEGG mmu04742): 0.7021
- NES: Regulation of actin cytoskeleton (GSEA KEGG mmu04810): 1.182
- enrichmentScore: Regulation of actin cytoskeleton (GSEA KEGG mmu04810): 0.312
- NES: Motor proteins (GSEA KEGG mmu04814): -1.623
- enrichmentScore: Motor proteins (GSEA KEGG mmu04814): -0.3694
- NES: Insulin secretion (GSEA KEGG mmu04911): 1.364
- enrichmentScore: Insulin secretion (GSEA KEGG mmu04911): 0.4349
- NES: Ovarian steroidogenesis (GSEA KEGG mmu04913): 1.397
- enrichmentScore: Ovarian steroidogenesis (GSEA KEGG mmu04913): 0.499
- NES: Progesterone-mediated oocyte maturation (GSEA KEGG mmu04914): -1.352
- enrichmentScore: Progesterone-mediated oocyte maturation (GSEA KEGG mmu04914): -0.3392
- NES: Thyroid hormone synthesis (GSEA KEGG mmu04918): 1.21
- enrichmentScore: Thyroid hormone synthesis (GSEA KEGG mmu04918): 0.3822
- NES: Thyroid hormone signaling pathway (GSEA KEGG mmu04919): -1.193
- enrichmentScore: Thyroid hormone signaling pathway (GSEA KEGG mmu04919): -0.278
- NES: Oxytocin signaling pathway (GSEA KEGG mmu04921): 1.2549
- enrichmentScore: Oxytocin signaling pathway (GSEA KEGG mmu04921): 0.3525
- NES: Glucagon signaling pathway (GSEA KEGG mmu04922): -1.435
- enrichmentScore: Glucagon signaling pathway (GSEA KEGG mmu04922): -0.3522
- NES: Regulation of lipolysis in adipocytes (GSEA KEGG mmu04923): 1.37
- enrichmentScore: Regulation of lipolysis in adipocytes (GSEA KEGG mmu04923): 0.4649
- NES: Renin secretion (GSEA KEGG mmu04924): 1.644
- enrichmentScore: Renin secretion (GSEA KEGG mmu04924): 0.5567
- NES: Aldosterone synthesis and secretion (GSEA KEGG mmu04925): 1.273
- enrichmentScore: Aldosterone synthesis and secretion (GSEA KEGG mmu04925): 0.3803
- NES: Relaxin signaling pathway (GSEA KEGG mmu04926): 1.257
- enrichmentScore: Relaxin signaling pathway (GSEA KEGG mmu04926): 0.3545
- NES: Cortisol synthesis and secretion (GSEA KEGG mmu04927): 1.396
- enrichmentScore: Cortisol synthesis and secretion (GSEA KEGG mmu04927): 0.4573
- NES: Parathyroid hormone synthesis, secretion and action (GSEA KEGG mmu04928): 1.74
- enrichmentScore: Parathyroid hormone synthesis, secretion and action (GSEA KEGG mmu04928): 0.5119
- NES: Insulin resistance (GSEA KEGG mmu04931): -1.682
- enrichmentScore: Insulin resistance (GSEA KEGG mmu04931): -0.394
- NES: AGE-RAGE signaling pathway in diabetic complications (GSEA KEGG mmu04933): 1.385
- enrichmentScore: AGE-RAGE signaling pathway in diabetic complications (GSEA KEGG mmu04933): 0.4005
- NES: Growth hormone synthesis, secretion and action (GSEA KEGG mmu04935): 1.209
- enrichmentScore: Growth hormone synthesis, secretion and action (GSEA KEGG mmu04935): 0.3459
- NES: Collecting duct acid secretion (GSEA KEGG mmu04966): -1.6527
- enrichmentScore: Collecting duct acid secretion (GSEA KEGG mmu04966): -0.5648
- NES: Gastric acid secretion (GSEA KEGG mmu04971): 1.497
- enrichmentScore: Gastric acid secretion (GSEA KEGG mmu04971): 0.4728
- NES: Carbohydrate digestion and absorption (GSEA KEGG mmu04973): 1.258
- enrichmentScore: Carbohydrate digestion and absorption (GSEA KEGG mmu04973): 0.4436
- NES: Protein digestion and absorption (GSEA KEGG mmu04974): 1.8879
- enrichmentScore: Protein digestion and absorption (GSEA KEGG mmu04974): 0.6074
